Experimental data reported in patent US12378216B2, “Heteroaryl(heterocyclyl)methanol compounds useful in the treatment of hyperglycaemia” (ATROGI AB, priority 2019, dated 2025).
Counter-ions that a name gives are not always drawn.

Columns and labels:
[1] = test system: L6-myotubes; test: Glucose uptake in differentiated L6-myotubes (3H-2-deoxy-glucose); format: cell-based; conditions: for Biological example 1 (glucose uptake, activity compared to that of isoproterenol): L6-myotubes, agonist final concentration 1×10^−5, relative to isoproterenol, Table 1; for Biological example 3: Table 2, the assay of Biological Example 1 (glucose uptake, L6-myotubes, agonist 1×10^−5, relative to isoproterenol)
Description: (§1) L6-myoblasts were grown in Dulbecco's Modified Eagle's Medium (DMEM) containing 4.5 g/I glucose supplemented with 10% fetal bovine serum, 2 mM L-Glutamine, 50 U/ml penicillin, 50 μg/ml streptomycin and 10 mM HEPES. Cells were plated at 1×10^5 cells per ml in 24-well plates. After reaching 90% confluence the cells were grown in medium containing 2% FBS for 7 days where upon cells differentiated into myotubes.
Differentiated L6-myotubes were serum-starved overnight in medium containing 0.5% fatty-acid free BSA and stimulated with agonist, final concentration 1×10^−5. After 1 h 40 min cells were washed with warm, glucose free medium or PBS and another portion of agonist was added to glucose free medium. After 20 min the cells were exposed to 50 nM ^3H-2-deoxy-glucose for another 10 min before washed in ice cold glucose free medium or PBS and lysed in 0.2 M NaOH for 1 h in 60° C.

[2] = test system: Intracellular cAMP levels; test: Measurement of intracellular cAMP levels in differentiated L6 cells (alpha screen cAMP kit); format: cell-based; conditions: for Biological example 2 (intracellular cAMP levels, activity compared to that of isoproterenol): differentiated cells, agonist final concentration 1×10-^5, 15 min, relative to isoproterenol, Table 1; for Biological example 4: Table 2, the assay of Biological Example 2 (intracellular cAMP, agonist 1×10-^5, relative to isoproterenol)
Description: as §1
Differentiated cells were serum-starved overnight and stimulated with agonist, final concentration 1×10-^5, for 15 min in stimulation buffer (HBSS supplemented with 1% BSA, 5 mM HEPES and 1 mM IBMX, pH 7.4) The medium was then aspirated and to end the reaction 100 μL of 95% EtOH was added to each well of a 24-well plate and cells were kept in −20° C. over night. The EtOH was let to evaporate and 500 μL of lysis buffer (1% BSA, 5 mM HEPES and 0.3% Tween-20, pH 7.4) was added to each well before put in −80° C. for 30 min and then kept in −20° C. Intracellular cAMP levels were detected using an alpha screen cAMP kit (6760635D from Perkin Elmer). The activity for each compound is compared to that of isoproterenol.

CCC[C@H]1CCC[C@H]([C@H](O)c2cncc(F)c2)N1 [Example 1, (R)-(5-Fluoropyridin-3-yl)((2R,6S)-6-propylpiperidin-2-yl)methanol dihydrochloride]
Biological example 1 (glucose uptake, activity compared to that of isoproterenol) [1]: − (less than 25%) | Biological example 2 (intracellular cAMP levels, activity compared to that of isoproterenol) [2]: − (less than 25%)

CCC[C@H]1CCC[C@H]([C@@H](O)c2cncc(F)c2)N1 [Example 2, (S)-(5-Fluoropyridin-3-yl)((2R,6S)-6-propylpiperidin-2-yl)methanol]
Biological example 1 (glucose uptake, activity compared to that of isoproterenol) [1]: − (less than 25%) | Biological example 2 (intracellular cAMP levels, activity compared to that of isoproterenol) [2]: − (less than 25%)

CCC[C@@H]1CC[C@H]([C@H](O)c2cncc(F)c2)N1.O=C(O)/C=C\C(=O)O [Example 3, (R)-(5-Fluoropyridin-3-yl)((2R,5R)-5-propylpyrrolidin-2-yl)methanol maleate]
Biological example 1 (glucose uptake, activity compared to that of isoproterenol) [1]: +++ (more than 75% of that of isoproterenol) | Biological example 2 (intracellular cAMP levels, activity compared to that of isoproterenol) [2]: − (less than 25%)

CCC[C@@H]1CC[C@H]([C@@H](O)c2cncc(F)c2)N1.O=C(O)/C=C\C(=O)O [Example 4, (S)-(5-Fluoropyridin-3-yl)((2R,5R)-5-propylpyrrolidin-2-yl)methanol maleate]
Biological example 1 (glucose uptake, activity compared to that of isoproterenol) [1]: ++ (between 75 and 50%) | Biological example 2 (intracellular cAMP levels, activity compared to that of isoproterenol) [2]: − (less than 25%)

CC1(C)CC[C@H]([C@H](O)c2cncc(F)c2)N1 [Example 5, (R)-((R)-5,5-Dimethylpyrrolidin-2-yl)(5-fluoropyridin-3-yl)methanol]
Biological example 1 (glucose uptake, activity compared to that of isoproterenol) [1]: +++ (more than 75% of that of isoproterenol) | Biological example 2 (intracellular cAMP levels, activity compared to that of isoproterenol) [2]: − (less than 25%)

CC1(C)CC[C@H]([C@@H](O)c2cncc(F)c2)N1 [Example 6, (S)-((R)-5,5-Dimethylpyrrolidin-2-yl) (5-fluoropyridin-3-yl)methanol]
Biological example 1 (glucose uptake, activity compared to that of isoproterenol) [1]: − (less than 25%) | Biological example 2 (intracellular cAMP levels, activity compared to that of isoproterenol) [2]: − (less than 25%)

CC1(C)CC[C@H]([C@H](O)c2cncc(O)c2)N1 [Example 7]
Biological example 1 (glucose uptake, activity compared to that of isoproterenol) [1]: ++ (between 75 and 50%) | Biological example 2 (intracellular cAMP levels, activity compared to that of isoproterenol) [2]: − (less than 25%)

CC1(C)CC[C@H]([C@@H](O)c2cncc(O)c2)N1 [Example 8, 5-((S)-((R)-5,5-dimethylpyrrolidin-2-yl)(hydroxy)methyl)pyridin-3-ol]
Biological example 1 (glucose uptake, activity compared to that of isoproterenol) [1]: + (between 50 and 25%) | Biological example 2 (intracellular cAMP levels, activity compared to that of isoproterenol) [2]: − (less than 25%)

CC1(C)C[C@H]([C@H](O)c2cncc(F)c2)N1 [Example 9, (R)-((R)-4,4-Dimethylazetidin-2-yl)(5-fluoropyridine-3-yl)methanol dihydrochloride]
Biological example 3 [1]: +++ (more than 75% of that of isoproterenol) | Biological example 4 [2]: − (less than 25%)

CC1(C)C[C@@H]([C@H](O)c2cncc(F)c2)N1 [Example 10, (R)-((S)-4,4-Dimethylazetidin-2-yl)(5-fluoropyridine-3-yl)methanol dihydrochloride]
Biological example 3 [1]: + (between 50 and 25%) | Biological example 4 [2]: − (less than 25%)

CC1(C)C[C@@H]([C@@H](O)c2cncc(F)c2)N1 [Example 11, (S)-((S)-4,4-Dimethylazetidin-2-yl) (5-fluoropyridine-3-yl) methanol dihydrochloride]
Biological example 3 [1]: + (between 50 and 25%) | Biological example 4 [2]: − (less than 25%)

CC1(C)C[C@H]([C@@H](O)c2cncc(F)c2)N1 [Example 12, (S)-((R)-4,4-Dimethylazetidin-2-yl)(5-fluoropyridin-3-yl)methanol dihydrochloride]
Biological example 3 [1]: + (between 50 and 25%) | Biological example 4 [2]: − (less than 25%)

CCC[C@@H]1CCCC[C@H]([C@H](O)c2cncc(F)c2)N1 [Example 13, (R)-(5-Fluoropyridin-3-yl)((2R,7R)-7-propylazepan-2-yl)methanol]
Biological example 3 [1]: − (less than 25%) | Biological example 4 [2]: − (less than 25%)

CCC[C@@H]1CCCC[C@H]([C@@H](O)c2cncc(F)c2)N1 [Example 14, (S)-(5-Fluoropyridin-3-yl)((2R,7R)-7-propylazepan-2-yl)methanol]
Biological example 3 [1]: − (less than 25%) | Biological example 4 [2]: − (less than 25%)

CCC[C@H]1CCCC[C@@H]([C@H](O)c2cncc(F)c2)N1 [Example 15, (R)-(5-Fluoropyridin-3-yl)(S,7S)-7-propylazepan-2-yl)methanol dihydrochloride]
Biological example 3 [1]: ++ (between 75 and 50%)

CCC[C@H]1CCCC[C@@H]([C@@H](O)c2cncc(F)c2)N1 [Example 16]
Biological example 3 [1]: + (between 50 and 25%)
